In US20030108622A1, “Cancer treatment composition and method using signal transduction modulators and natural plant essential oils as synergists for conventional treatments” (EcoSMART Technologies, Inc., priority 1998, published 2003):

Legend:
Format in all cases: cell-based, human
MCF-7 cells [1] = experiment: Dose-response of signal transduction modulators on E2-induced cell proliferation, 3H-thymidine incorporation (Example 2)
Protocol: Dose-response of Signal Transduction Modulators on E2-Induced Cell Proliferation To determine the impact of two key signaling proteins, cAMP/PKA system and tyrosine kinase family member, c-Src kinase (p^src60) on estrogen-induced cell proliferation in human epithelial breast cancer cells, MCF-7 cells were cultured in growth DMEM medium supplemented with 10% fetal bovine serum (FBS). At 85% confluence, cells were sub-cultured in 5% FBS serum stripped medium, phenol red free for 24 hours prior to the treatment of the test chemical. […] Tamoxifen (TX) was used in parallel as positive control. Cell proliferation was measured using ^3H-thymidine incorporation. The study was done in triplicate and a control was used with solvent only. Control received solvent only at <0.1% ethanol.

MCF-7 cells [2] = experiment: Effect of FK or GM on TX efficacy against E2-induced cell proliferation, 3H-thymidine incorporation (Example 3)
Protocol: In another experiment cells were treated with 10 nM E2 (=2.7 ng E2/ml) with three concentraion of GM (1, 5 and 10 ng/ml) 24 hours prior to cell proliferation assessment. Tamoxifen (TX) was used in parallel as positive control. Cell proliferation was measured using ^3H-thymidine incorporation. The study was done in triplicate and a control was used with solvent only. Control received solvent only at <0.1% ethanol.

MCF-7 cells [3] = experiment: Cell growth without E2, 5 days, cell count using trypan blue exclusion (Examples 5-7); settings: mixtures with TX; conclusion from the Examples, FIGS. 6-9
Protocol: MCF-7 cells were cultured in growth DMEM medium supplemented with 10% fetal bovine serum (FBS). At 85% confluence, cells were sub-cultured in 5% FBS serum stripped medium, phenol red free for 24 hours prior to the treatment of the test chemical. Cells were treated with and without a mixture of either 5 μM FK […] and 1 μM TX (=0.56 ug TX/ml) or a mixture of 1 μM TX (=0.56 ug TX/ml) and 1 μM FK. Cell growth was measured 5 days following treatment. Cell growth was determined by cell count using trypan blue exclusion. The study was done in duplicate and a control was used with solvent only. Control received solvent only at <0.1% ethanol.
MCF-7 cells were cultured in growth DMEM medium supplemented with 10% fetal bovine serum (FBS). At 85% confluence, cells were sub-cultured in 5% FBS serum stripped medium, phenol red free for 24 hours prior to the treatment of the test chemical. Cells were treated with and without a mixture of either 5 ng GM/ml and 5 μM TX (=2.8 ug TX/ml) or a mixture of 10 ng GM/ml and 5 μM TX (=2.8 ug TX/ml). Cell growth was measured 5 days following treatment. Cell growth was determined by cell count using trypan blue exclusion. […]
MCF-7 cells were cultured in growth DMEM medium supplemented with 10% fetal bovine serum (FBS). […] Cell growth was measured 5 days following treatment. Cell growth was determined by cell count using trypan blue exclusion. […]

MCF-7 cells [4] = experiment: Dose-response of tamoxifen on E2-induced cell proliferation, 3H-thymidine incorporation (Example 1)
Protocol: Dose-Response of Tamoxifen on Estrogen (E2)-Induced Cell Proliferation MCF-7 cells were cultured in growth DMEM medium supplemented with 10% fetal bovine serum (FBS). […] […] Cell proliferation was measured using ^3H-thymidine incorporation. The study was done in triplicate and a control was used with solvent only. Control received solvent only at <0.1% ethanol.
In Table 1, percentage of control is calculated either based on the control (solvent only, ethanol 0.1%) or based on the E2 values which is between parenthesis.

MCF-7 cells [5] = experiment: Time-course of E2-induced cell growth, cell count using trypan blue exclusion (Example 4); settings: TX 1 μM alone + E2 10 nM; calculated on control value, FIG. 4
Protocol: Effect of cAMP Inducer on Efficacy and Stability of Tamoxifen MCF-7 cells were cultured in growth DMEM medium supplemented with 10% fetal bovine serum (FBS). At 85% confluence, cells were sub-cultured in 5% FBS serum stripped medium, phenol red free for 24 hours prior to the treatment of the test chemical. Cells were treated with 10 nM E2 (=2.7 ng E2/ml) with and without a mixture of 1 μM FK and 1 μM TX. Cell growth was measured 1, 2 and 5 days following treatment. Cell growth was determined by cell count using trypan blue exclusion. The study was done in duplicate and a control was used with solvent only. Control received solvent only at <. 1% ethanol.

[6] = TX 5 μM + E2 10 nM, based on solvent control
[7] = TX 5 μM + E2 10 nM, value in parenthesis, based on E2 value
[8] = TX 10 μM + E2 10 nM, based on solvent control

With C=C[C@@]1(C)CC(=O)[C@]2(O)[C@@]3(C)[C@@H](O)CCC(C)(C)[C@@H]3[C@H](O)[C@H](OC(C)=O)[C@@]2(C)O1 [FK, forskolin] as the compound, how does the “% protection” value (MCF-7 cells [1]; FK 1 μM in the presence of 10 nM E2) read?
Its value is 66%.

And the “% protection” value (MCF-7 cells [1]; FK 5 μM in the presence of 10 nM E2)?
Its value is 78%.

And the “% protection” value (MCF-7 cells [1]; FK 10 μM in the presence of 10 nM E2)?
The value was 86%.

And the activity at 1 µM (MCF-7 cells [1]; Homo sapiens, MCF7, FK 1 μM in the presence of 10 nM E2, read-out: 3H-Thymidine incorporation/μg protein (% of control))?
The activity at 1 µM was 34%.

And the activity at 5 µM (MCF-7 cells [1]; Homo sapiens, MCF7, FK 5 μM in the presence of 10 nM E2, read-out: 3H-Thymidine incorporation/μg protein (% of control))?
Its activity at 5 µM is 22%.

What about the activity at 10 µM (MCF-7 cells [1]; Homo sapiens, MCF7, FK 10 μM in the presence of 10 nM E2, read-out: 3H-Thymidine incorporation/μg protein (% of control)) of the same compound?
The activity at 10 µM was 14%.

How did the “3H-Thymidine incorporation/μg protein (% of control)” value (MCF-7 cells [1]; GM 1 ng/ml in the presence of 10 nM E2) turn out when COC1=C2C[C@@H](C)C[C@H](OC)[C@H](O)[C@@H](C)/C=C(\C)[C@H](OC(N)=O)[C@@H](OC)/C=C\C=C(/C)C(=O)NC(=CC1=O)C2=O [GM, geldanamycin] was run?
The value was “no effect”.

And the “3H-Thymidine incorporation/μg protein (% of control)” value (MCF-7 cells [1]; GM 5 ng/ml in the presence of 10 nM E2)?
Its value is “no effect”.

What about the “inhibition of the E2-induced cell proliferation” value (MCF-7 cells [1]; GM 10 ng/ml) of the same compound?
Its value is “did not inhibit”.

What about the “% protection” value (MCF-7 cells [1]; GM 10 ng/ml in the presence of 10 nM E2) of the same compound?
The value was 6%.

And the activity at 0.01 µg/mL (MCF-7 cells [1]; Homo sapiens, MCF7, GM 10 ng/ml in the presence of 10 nM E2, read-out: 3H-Thymidine incorporation/μg protein (% of control))?
Its activity at 0.01 µg/mL is 94%.

And the activity at 0.001 µg/mL (MCF-7 cells [2]; Homo sapiens, MCF7, Table 4: GM 1 ng/ml, E2 10 nM = 100, read-out: 3H-Thymidine incorporation/μg protein (% of control))?
The activity at 0.001 µg/mL was 100%.

What about the activity at 0.005 µg/mL (MCF-7 cells [2]; Homo sapiens, MCF7, Table 4: GM 5 ng/ml, E2 10 nM = 100, read-out: 3H-Thymidine incorporation/μg protein (% of control)) of the same compound?
The activity at 0.005 µg/mL was 100%.

And the activity at 0.01 µg/mL (MCF-7 cells [2]; Homo sapiens, MCF7, Table 4: GM 10 ng/ml, E2 10 nM = 100, read-out: 3H-Thymidine incorporation/μg protein (% of control))?
Its activity at 0.01 µg/mL is 90%.

And the “% protection” value (MCF-7 cells [2]; Table 4: GM 1 ng/ml, E2 10 nM = 100)?
Its value is 0%.

What about the “% protection” value (MCF-7 cells [2]; Table 4: GM 5 ng/ml, E2 10 nM = 100) of the same compound?
The value was 0%.

And the “% protection” value (MCF-7 cells [2]; Table 4: GM 10 ng/ml, E2 10 nM = 100)?
Its value is 10%.

For COc1cccc(-c2cc(=O)c3ccccc3o2)c1N [PD98059], which “synergy with the anticancer activity of tamoxifen in breast cancer cells” value (MCF-7 cells [3]) is on record?
The value was “synergize the anticancer activity of tamoxifen”.

Which results are given for CC/C(=C(\c1ccccc1)c1ccc(OCCN(C)C)cc1)c1ccccc1 [TX, tamoxifen]?
activity at 1 µM (MCF-7 cells [4]; Homo sapiens, MCF7, TX 1 μM, without E2, based on solvent control): 42%; activity at 5 µM (MCF-7 cells [4]; Homo sapiens, MCF7, TX 5 μM, without E2, based on solvent control): 36%; activity at 10 µM (MCF-7 cells [4]; Homo sapiens, MCF7, TX 10 μM, without E2, based on solvent control): 33%; 3H-thymidine incorporation dpm (MCF-7 cells [4]; TX 1 μM + E2 10 nM): 12336 dpm; 3H-thymidine incorporation dpm/μg protein (MCF-7 cells [4]; TX 1 μM + E2 10 nM): 379.6 dpm/μg protein; 3H-thymidine incorporation % of control (MCF-7 cells [4]; TX 1 μM + E2 10 nM, based on solvent control): 124%; % protection (based on E2 value) (MCF-7 cells [4]; TX 1 μM + E2 10 nM, value in parenthesis, based on E2 value): (21) %; 3H-thymidine incorporation dpm (MCF-7 cells [4]; TX 1 μM, without E2): 2586 dpm; 3H-thymidine incorporation dpm/μg protein (MCF-7 cells [4]; TX 1 μM, without E2): 129.3 dpm/μg protein; % protection (MCF-7 cells [4]; TX 1 μM, without E2): 58%; 3H-thymidine incorporation dpm (MCF-7 cells [4]; TX 5 μM + E2 10 nM): 4007 dpm; 3H-thymidine incorporation dpm/μg protein (MCF-7 cells [4]; TX 5 μM + E2 10 nM): 260.2 dpm/μg protein; 3H-thymidine incorporation % of control (MCF-7 cells [4]; [6]): 85%; % protection (MCF-7 cells [4]; [6]): 15%; 3H-thymidine incorporation % of control (based on E2 value) (MCF-7 cells [4]; [7]): 53%; % protection (based on E2 value) (MCF-7 cells [4]; [7]): 47%; 3H-thymidine incorporation dpm (MCF-7 cells [4]; TX 5 μM, without E2): 1848 dpm; 3H-thymidine incorporation dpm/μg protein (MCF-7 cells [4]; TX 5 μM, without E2): 112.0 dpm/μg protein; % protection (MCF-7 cells [4]; TX 5 μM, without E2): 64%; 3H-thymidine incorporation dpm (MCF-7 cells [4]; TX 10 μM + E2 10 nM): 3239 dpm; 3H-thymidine incorporation dpm/μg protein (MCF-7 cells [4]; TX 10 μM + E2 10 nM): 118.5 dpm/μg protein; 3H-thymidine incorporation % of control (MCF-7 cells [4]; [8]): 39%; % protection (MCF-7 cells [4]; [8]): 61%; % protection (based on E2 value) (MCF-7 cells [4]; TX 10 μM + E2 10 nM, value in parenthesis, based on E2 value): 75%; 3H-thymidine incorporation dpm (MCF-7 cells [4]; TX 10 μM, without E2): 1545 dpm; 3H-thymidine incorporation dpm/μg protein (MCF-7 cells [4]; TX 10 μM, without E2): 99.8 dpm/μg protein; % protection (MCF-7 cells [4]; TX 10 μM, without E2): 67%; antagonistic action against the E2-induced cell proliferation (MCF-7 cells [4]; TX 1-10 μM, Table 1): dose-dependent; potency against the E2-induced cell proliferation (MCF-7 cells [4]; low concentrations 0.56 ug/ml to 2.8 ug/ml (=1 - 5 μM)): potent; antiestrogenic action (MCF-7 cells [1]; 1-10 μM, Table 2): dose-dependent; activity at 1 µM (MCF-7 cells [1]; Homo sapiens, MCF7, TX 1 μM in the presence of 10 nM E2, read-out: 3H-Thymidine incorporation/μg protein (% of control)): 79%; activity at 5 µM (MCF-7 cells [1]; Homo sapiens, MCF7, TX 5 μM in the presence of 10 nM E2, read-out: 3H-Thymidine incorporation/μg protein (% of control)): 54%; activity at 10 µM (MCF-7 cells [1]; Homo sapiens, MCF7, TX 10 μM in the presence of 10 nM E2, read-out: 3H-Thymidine incorporation/μg protein (% of control)): 25%; % protection (MCF-7 cells [1]; TX 1 μM in the presence of 10 nM E2): 21%; % protection (MCF-7 cells [1]; TX 5 μM in the presence of 10 nM E2): 46%; % protection (MCF-7 cells [1]; TX 10 μM in the presence of 10 nM E2): 75%; protection against the biological activity of E2 (MCF-7 cells [2]; 1 μM TX alone, FIG. 2): ~25%; protection against the E2-induced cancer cell growth (MCF-7 cells [2]; 5 μM TX alone, FIG. 2): 45%; activity at 5 µM (MCF-7 cells [2]; Homo sapiens, MCF7, Table 4: 5 μM TX + E2, E2 10 nM = 100, read-out: 3H-Thymidine incorporation/μg protein (% of control)): 54%; % protection (MCF-7 cells [2]; Table 4: 5 μM TX + E2 (TX alone)): 46%; time over which the E2 action is antagonized (MCF-7 cells [5]): up to 48 hr
